Laboratory results: ChEMBL document CHEMBL1144115, “Antibacterial diterpenoid acids from Azorella compacta” (1999)
Calls of active or inactive are those of the source. The rule behind the calls is not given here. Where a SMILES comes first, the peptide text is derived from it. Bridges are numbered along the chain shown (N, C = ends). [ ]: non-standard residue; d: D form. The star is where a group is joined. Ileψ(thiazoline)Cys = CC[C@H](C)[C@H](N)C1=N[C@H](C(=O)*)CS1; dOrn = NCCC[C@@H](N)C(=O)O

Assays:
Staphylococcus aureus [1] = test: Antibacterial activity against methicillin-susceptible Staphylococcus aureus at 200 ug after 18 hrs by agar diffusion test; assay type: functional; conditions: for zone of inhibition at 200 µg/disc: read-out: IZ
Escherichia coli [2] = test: Antibacterial activity against Escherichia coli BAS849 mutant at 200 ug after 18 hrs by agar diffusion test; assay type: functional; conditions: for zone of inhibition at 200 µg/disc: read-out: IZ
Staphylococcus aureus [3] = test: Antibacterial activity against methicillin-resistant Staphylococcus aureus at 200 ug after 18 hrs by agar diffusion test; assay type: functional; conditions: for zone of inhibition at 200 µg/disc: read-out: IZ
Enterococcus faecium [4] = test: Antibacterial activity against vancomycin-resistant Enterococcus faecium at 200 ug after 18 hrs by agar diffusion test; assay type: functional; conditions: for zone of inhibition at 200 µg/disc: read-out: IZ
Candida albicans = test: Antimicrobial activity against Candida albicans at 200 ug after 18 hrs by agar diffusion test; assay type: functional, organism-based
Enterococcus faecium [5] = test: Antibacterial activity against vancomycin-resistant Enterococcus faecium at 10 ug after 18 hrs by agar diffusion test; assay type: functional; conditions: read-out: IZ
Staphylococcus aureus [6] = test: Antibacterial activity against methicillin-susceptible Staphylococcus aureus at 30 ug after 18 hrs by agar diffusion test; assay type: functional; conditions: read-out: IZ
Staphylococcus aureus [7] = test: Antibacterial activity against methicillin-resistant Staphylococcus aureus at 30 ug after 18 hrs by agar diffusion test; assay type: functional; conditions: read-out: IZ
Escherichia coli [8] = test: Antibacterial activity against Escherichia coli BAS849 mutant at 30 ug after 18 hrs by agar diffusion test; assay type: functional; conditions: read-out: IZ

Question: With `CC1=CC(=O)[C@H]2[C@@H]3CC[C@H](C(C)C)[C@@]3(C(=O)O)CC[C@@]2(C)C=C1` as the compound, how does the zone of inhibition at 200 µg/disc (Staphylococcus aureus [1]) read?
Answer: Its zone of inhibition at 200 µg/disc is 8 mm.

Question: And the zone of inhibition at 200 µg/disc (Escherichia coli [2])?
Answer: The zone of inhibition at 200 µg/disc was 8 mm.

Question: What about the zone of inhibition at 200 µg/disc (Staphylococcus aureus [3]) of the same compound?
Answer: The zone of inhibition at 200 µg/disc was 8 mm.

Question: What about the zone of inhibition at 200 µg/disc (Enterococcus faecium [4]) of the same compound?
Answer: The zone of inhibition at 200 µg/disc was 8 mm.

Question: And the Activity (Candida albicans)?
Answer: Its Activity is “inactive”.

Question: `CC1=CC(=O)[C@H]2[C@@H]3CC[C@H](C(C)C)[C@@]3(C(=O)O)CC[C@@]2(C)CC1=O` was tested. Which zone of inhibition at 200 µg/disc (Staphylococcus aureus [1]) did it give?
Answer: Its zone of inhibition at 200 µg/disc is 8 mm.

Question: And the zone of inhibition at 200 µg/disc (Escherichia coli [2])?
Answer: The zone of inhibition at 200 µg/disc was 8 mm.

Question: What about the zone of inhibition at 200 µg/disc (Staphylococcus aureus [3]) of the same compound?
Answer: The zone of inhibition at 200 µg/disc was 8 mm.

Question: And the zone of inhibition at 200 µg/disc (Enterococcus faecium [4])?
Answer: Its zone of inhibition at 200 µg/disc is 8 mm.

Question: What about the Activity (Candida albicans) of the same compound?
Answer: Its Activity is “inactive”.

Question: With `CC[C@H](C)[C@H](N)C1=N[C@H](C(=O)N[C@@H](CC(C)C)C(=O)N[C@H](CCC(=O)O)C(=O)N[C@H](C(=O)N[C@H]2CCCCNC(=O)[C@H](CC(N)=O)NC(=O)[C@@H](CC(=O)O)NC(=O)[C@H](Cc3cnc[nH]3)NC(=O)[C@@H](Cc3ccccc3)NC(=O)[C@H]([C@@H](C)CC)NC(=O)[C@@H](CCCN)NC2=O)[C@@H](C)CC)CS1` [BACITRACIN] ({Ileψ(thiazoline)Cys}-L[dE]IK[dOrn]I[dF]H[dD]N; lactam 4-C) as the compound, how does the zone of inhibition at 10 µg/disc (Enterococcus faecium [5]) read?
Answer: Its zone of inhibition at 10 µg/disc is 16 mm.

Question: `CC(C)[C@H]1CC[C@H]2[C@@H]3C=C[C@](C)(O)CC[C@]3(C)CC[C@]12C(=O)O` was tested. Which Activity (Staphylococcus aureus [1]) did it give?
Answer: The Activity was “inactive”.

Question: And the Activity (Escherichia coli [2])?
Answer: Its Activity is “inactive”.

Question: And the Activity (Staphylococcus aureus [3])?
Answer: The Activity was “inactive”.

Question: And the Activity (Enterococcus faecium [4])?
Answer: Its Activity is “inactive”.

Question: And the Activity (Candida albicans)?
Answer: Its Activity is “inactive”.

Question: What does the source list for `CC1=CC[C@]2(C)CC[C@]3(C(=O)O)[C@@H](C(C)C)CC[C@H]3[C@@H]2C=C1`?
Answer: Activity (Staphylococcus aureus [1]): inactive; Activity (Escherichia coli [2]): inactive; Activity (Staphylococcus aureus [3]): inactive; Activity (Enterococcus faecium [4]): inactive; Activity (Candida albicans): inactive

Question: For `CN[C@H](CC(C)C)C(=O)N[C@H]1C(=O)N[C@@H](CC(N)=O)C(=O)N[C@H]2C(=O)N[C@H]3C(=O)N[C@H](C(=O)N[C@H](C(=O)O)c4cc(O)cc(O)c4-c4cc3ccc4O)[C@H](O)c3ccc(c(Cl)c3)Oc3cc2cc(c3O[C@@H]2O[C@H](CO)[C@@H](O)[C@H](O)[C@H]2O[C@H]2C[C@](C)(N)[C@H](O)[C@H](C)O2)Oc2ccc(cc2Cl)[C@H]1O` [VANCOMYCIN], which zone of inhibition at 30 µg/disc (Staphylococcus aureus [6]) is on record?
Answer: The zone of inhibition at 30 µg/disc was 16 mm.

Question: And the zone of inhibition at 30 µg/disc (Staphylococcus aureus [7])?
Answer: Its zone of inhibition at 30 µg/disc is 16 mm.

Question: How did the zone of inhibition at 30 µg/disc (Escherichia coli [8]) turn out when `CO[C@@]1(NC(=O)Cc2cccs2)C(=O)N2C(C(=O)O)=C(COC(N)=O)CS[C@@H]21` [CEFOXITIN] was run?
Answer: The zone of inhibition at 30 µg/disc was 16 mm.
